{
  "source": "patent US10307411B2",
  "about": "“Use of cotinine in treating or preventing neurogenesis deficits and enhancing neurogenesis” (Department of Veterans Affairs, priority 2014, dated 2019)",
  "key": {"[1]": {"experiment": "Novel location recognition test (NOL), spatial recognition memory in rats subjected to CMF chemotherapy", "format": "in vivo, Wistar female rats", "conditions": "CMF-treated rats, cotinine 5 mg/kg oral", "protocol": "Wistar female rats (2-4 months of age, 200-300 g) (n=10/group) were obtained from Harlan laboratories. Rats were housed in pairs, kept at 12 h light/12 h dark cycle and maintained in an air-conditioned room at a temperature of 21±1° C. and relative humidity of 60±10%. Food and water were available ad libitum. All rats were acclimated to the Veterinary Medical Unit for 1 week and handled daily. Weight was recorded every 2 days to assess for dehydration induced by the chemotherapy regime. All procedures were approved by the Institutional Animal Care and Use (IACUC) committee of the Bay Pines Veterans Affairs (VA) Healthcare System, in accordance with VA and The Guide for the Care and Use of Laboratory Animals. […]\nThis task evaluates spatial recognition memory and is based on the preferential exploration of a displaced object by rodents able to detect a novel placement of an object after remembering each object's original positions (Ennaceur A, Delacour J (1988) A new one-trial test for neurobiological studies of memory in rats. 1: Behavioral data. Behav Brain Res 31(1):47-59). […] The discrimination index (DI), which is a measure of spatial recognition memory, was calculated as follows: time spent exploring the object in the new location/total time spent exploring both objects.\nDifferences among the means were analyzed using one-way analysis of variance (ANOVA). […]"}, "[2]": {"conditions": "administered in the drinking water for 78 weeks; rats initiated with FANFT; cited from earlier work"}, "17-ketosteroid reductase": {"test_system": "17-ketosteroid reductase", "conditions": "in vitro; cited from earlier work"}, "monocytes": {"test_system": "monocytes", "conditions": "α7nAChR-dependent; cited from earlier work"}, "[3]": {"experiment": "Weight gain in rats subjected to CMF chemotherapy", "format": "in vivo, Wistar female rats", "protocol": "Wistar female rats (2-4 months of age, 200-300 g) (n=10/group) were obtained from Harlan laboratories. Rats were housed in pairs, kept at 12 h light/12 h dark cycle and maintained in an air-conditioned room at a temperature of 21±1° C. and relative humidity of 60±10%. Food and water were available ad libitum. All rats were acclimated to the Veterinary Medical Unit for 1 week and handled daily. Weight was recorded every 2 days to assess for dehydration induced by the chemotherapy regime. All procedures were approved by the Institutional Animal Care and Use (IACUC) committee of the Bay Pines Veterans Affairs (VA) Healthcare System, in accordance with VA and The Guide for the Care and Use of Laboratory Animals. Following the habituation period, rats were divided into 4 groups (n=6-12/condition) and treated with warm saline (vehicle) or a combination of cyclophosphamide (40 mg/kg), methotrexate (37.5 mg/kg) and 5-fluorouracil (75 mg/kg) (CMF) via intraperitoneal (i.p. or IP) injection once a week for 2 weeks, the shortest time inducing cognitive impairment in the rats. […] Differences among the means were analyzed using one-way analysis of variance (ANOVA). […]"}, "[4]": {"conditions": "clinical studies, doses up to 1.5 mg cotinine base/kg; cited from earlier work"}},
  "data": [
    {"smiles": "CN1C(=O)CC[C@H]1c1cccnc1", "note": "[cotinine, (5S)-1-methyl-5-(3-pyridyl) pyrrolidin-2-one]", "values": [
      {"measurement": "ability to discriminate between old and new location of objects (discrimination index)", "setting": "[1]", "result": "restored the ability"},
      {"measurement": "location discrimination level compared with control rats", "setting": "[1]; p>0.05", "result": "indistinguishable from control rats"},
      {"measurement": "carcinogenicity / promotion of urinary bladder tumors", "setting": "[2]", "result": "neither carcinogenic nor promoted urinary bladder tumors"},
      {"measurement": "inhibition of 17-ketosteroid reductase", "setting": "17-ketosteroid reductase", "result": "inhibiting"},
      {"measurement": "inflammatory response to gram-negative bacteria (expression of TNF-α, IL-1β and IL-6)", "setting": "monocytes", "result": "reduced the inflammatory response"},
      {"measurement": "recovery of weight gain after chemotherapy", "setting": "[3]; CMF-treated rats, cotinine 5 mg/kg oral daily from 3 days after chemotherapy, vs chemotherapy-treated control rats p<0.05", "result": "enhanced the recovery of weight gain"},
      {"measurement": "weight levels reached compared with vehicle-treated rats", "setting": "[3]; cotinine 5 mg/kg oral daily, 30 days of experiments", "result": "indistinguishable from the vehicle-treated rats"},
      {"measurement": "recall of a short list", "setting": "[4]", "result": "did not affected the recall"},
      {"measurement": "recall on the long list on a verbal recall task", "setting": "[4]", "result": "impaired recall"}
    ]}
  ]
}
